{"source": "patent US6723735B1", "about": "“Imidazo-pyridine derivatives as ligands for GABA receptors” (Merck Sharp & Dohme Ltd., priority 1999, dated 2004)", "note": "Structures can show the parent of a compound that is named as a salt."}
{"units": {"melting point": "°C"}}
{"smiles": "c1cncc(-c2cccc(-n3cnc4cc(-c5ccoc5)cnc43)c2)c1", "note": "[Example 1, 6-(Furan-3-yl)-3-[3-(pyridin-3-yl)phenyl]-3H-imidazo[4,5-b]pyridine]", "melting point": "191 to 192"}
{"smiles": "c1ccc(-c2cnc3c(c2)ncn3-c2cccc(-c3cccnc3)c2)cc1", "note": "[Example 5, 6-Phenyl-3-[3-(pyridin-3-yl)phenyl]-3H-imidazo[4,5-b]pyridine]", "melting point": "179 to 180"}
{"smiles": "c1cc(-n2ccnc2)cc(-n2cnc3cc(-c4ccoc4)cnc32)c1", "note": "(as salt: oxalate) [Example 3, 6-(Furan-3-yl)-3-[3-(imidazol-1-yl)phenyl]-3H-imidazo[4,5-b]pyridine]", "melting point": "202 to 204"}
